# Test results: patent US10294236B2, “Compounds as rearranged during transfection (RET) inhibitors” (GLAXOSMITHKLINE INTELLECTUAL PROPERTY DEVELOPMENT LIMITED, priority 2014, dated 2019)
# Counter-ions that a name gives are not always drawn.
# Biological target: T1, Human RET kinase cytoplasmic domain (Homo sapiens, UniProt P07949)
# T1 construct: made in house
# T1 sequence (P07949 658-1114): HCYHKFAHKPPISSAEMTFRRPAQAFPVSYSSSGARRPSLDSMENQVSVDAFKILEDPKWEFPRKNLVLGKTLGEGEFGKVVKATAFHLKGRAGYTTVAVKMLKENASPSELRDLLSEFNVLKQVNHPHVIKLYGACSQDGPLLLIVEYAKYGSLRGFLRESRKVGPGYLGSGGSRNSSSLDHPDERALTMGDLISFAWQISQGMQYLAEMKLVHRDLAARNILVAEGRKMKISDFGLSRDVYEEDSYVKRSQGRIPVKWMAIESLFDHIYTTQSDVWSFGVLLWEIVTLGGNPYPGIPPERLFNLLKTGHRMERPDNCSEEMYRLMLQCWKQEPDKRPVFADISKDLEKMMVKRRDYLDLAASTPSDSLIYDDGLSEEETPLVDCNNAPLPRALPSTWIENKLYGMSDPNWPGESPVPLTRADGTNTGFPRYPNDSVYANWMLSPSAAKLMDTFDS
# Experiment: RET kinase enzymatic assay
# Format: biochemical
# Protocol: GST-RET was purified using glutathione sepharose chromatography. The RET kinase enzymatic assay was performed in a total volume of 10 uL with increasing concentrations of RET kinase inhibitor as a singlet in a 384 well format as follows: RET inhibitor compound plates are prepared by adding 100 nL of RET inhibitor at different concentrations to a 384-well plate. 5 μL/well of a 2× enzyme mix (50 mM HEPES (4-(2-hydroxyethyl)-1-piperazineethanesulfonic acid); 1 mM CHAPS (3-[(3-cholamidopropyl)dimethylammonio]-1-propanesulfonate); 0.1 mg/mL BSA (bovine serum albumin); 1 mM DTT (dithiothreitol); 0.2 nM RET kinase) was added to the 384-well plate and incubated for 30 minutes at 23° C. 5 µL/well of a 2× substrate mix (50 mM HEPES; 1 mM CHAPS; 0.1 mg/mL BSA; 20 μM adenosine triphosphate; 20 mM MgCl2 and 1 μM biotinylated peptide substrate) was added and incubated for 1 hour at 23° C. […] IC50s were fitted using GraphPad Prism to a sigmoidal dose response.
row,Structure (SMILES),IC50
1,"CCOc1cc(-c2ccc(NC(=O)Nc3ccc(CC(C)(C)CO)c(C(F)(F)F)c3)c(F)c2)c[nH]c1=O [Example 64, 1-(4-(5-Ethoxy-6-oxo-1,6-dihydropyridin-3-yl)-2-fluorophenyl)-3-(4-(3-hydroxy-2,2-dimethylpropyl)-3-(trifluoromethyl)phenyl)urea]",< 100 nM
2,CCOc1cc(-c2ccc(NC(=O)Nc3ccc(OCCO)c(C(F)(F)F)c3)c(F)c2)c[nH]c1=O [Example 143],< 100 nM
3,CCOc1cc(-c2ccc(NC(=O)Nc3ccc(OC(C)C)c(C(F)(F)F)c3)c(F)c2)c[nH]c1=O [Example 82],< 100 nM
4,CCOc1cc(-c2ccc(NC(=O)Nc3ccc(Cc4cnn(C)c4)c(C(F)(F)F)c3)c(F)c2)c[nH]c1=O [Example 146],< 100 nM
5,CCOc1cc(-c2ccc(NC(=O)Nc3ccc(OC4(C)COC4)c(C(F)(F)F)c3F)c(F)c2)c[nH]c1=O [Example 166],< 100 nM
6,"CCOc1cc(=O)[nH]cc1-c1ncc(NC(=O)Nc2ccc(CC(C)(C)N)c(C(F)(F)F)c2)c(C)n1 [Example 186, 1-(4-(2-Amino-2-methylpropyl)-3-(trifluoromethyl)phenyl)-3-(2-(4-ethoxy-6-oxo-1,6-dihydropyridin-3-yl)-4-methylpyrimidin-5-yl)urea]",< 100 nM
7,CCOc1cc(-c2ccc(NC(=O)Nc3ccc(CCN(C)C)c(C(F)(F)F)c3)c(F)c2)c[nH]c1=O [Example 165],< 100 nM
8,CCOc1ccc(NC(=O)Nc2ccc(-c3c[nH]c(=O)c(OCC)c3)cc2F)cc1C(F)(F)F [Example 80],< 100 nM
9,CC1(Oc2ccc(NC(=O)Nc3ccc(-c4c[nH]c(=O)cc4OC(F)F)cc3F)cc2C(F)(F)F)COC1 [Example 126],< 100 nM
10,"CCOc1cc(-c2ncc(NC(=O)Nc3ccc(CC(C)(C)CO)c(C(F)(F)F)c3)c(C)n2)c[nH]c1=O [Example 48, 1-(2-(5-Ethoxy-6-oxo-1,6-dihydropyridin-3-yl)-4-methylpyrimidin-5-yl)-3-(4-(3-hydroxy-2,2-dimethylpropyl)-3-(trifluoromethyl)phenyl)urea]",< 100 nM
11,CCOc1cc(-c2ncc(NC(=O)Nc3ccc(CN4CCC4)c(C(F)(F)F)c3)c(C)n2)c[nH]c1=O [Example 109],< 100 nM
12,"CCOc1cc(-c2ncc(NC(=O)Nc3cc(-n4cnc(C)c4)cc(C(F)(F)F)c3)c(C)n2)c[nH]c1=O [Example 57, 1-(2-(5-Ethoxy-6-oxo-1,6-dihydropyridin-3-yl)-4-methylpyrimidin-5-yl)-3-(3-(4-methyl-1H-imidazol-1-yl)-5-(trifluoromethyl)phenyl)urea]",< 100 nM

# The next lines start with the values.
row,IC50,Structure (SMILES)
1,< 100 nM,"CCOc1cc(-c2ncc(NC(=O)Nc3ccc(C(C)(C)C(N)=O)c(C(F)(F)F)c3)c(C)n2)c[nH]c1=O [Example 63, 2-(4-(3-(2-(5-Ethoxy-6-oxo-1,6-dihydropyridin-3-yl)-4-methylpyrimidin-5-yl)ureido)-2-(trifluoromethyl)phenyl)-2-methylpropanamide]"
2,< 100 nM,CCCOc1cc(-c2ccc(NC(=O)Nc3ccc(OC4(C)COC4)c(C(F)(F)F)c3)c(F)c2)c[nH]c1=O [Example 138]
3,< 100 nM,"CCOc1cc(-c2ncc(NC(=O)Nc3cc(C(F)(F)F)c(CN4CCN(CC)CC4)cc3F)cn2)c[nH]c1=O [Example 183, 1-(2-(5-Ethoxy-6-oxo-1,6-dihydropyridin-3-yl)pyrimidin-5-yl)-3-(4-((4-ethylpiperazin-1-yl)methyl)-2-fluoro-5-(trifluoromethyl)phenyl)urea trihydrochloride]"
4,< 100 nM,Cc1cc(-c2ccc(=O)[nH]c2)ccc1NC(=O)Nc1ccc(OC2(C)COC2)c(C(F)(F)F)c1 [Example 137]
5,< 100 nM,"Cc1[nH]c(=O)ccc1-c1ccc(NC(=O)Nc2ccc(OC3(C)COC3)c(C(F)(F)F)c2)c(F)c1 [Example 40, 1-(2-Fluoro-4-(2-methyl-6-oxo-1,6-dihydropyridin-3-yl)phenyl)-3-(4-((3-methyloxetan-3-yl)oxy)-3-(trifluoromethyl)phenyl)urea]"
6,< 100 nM,"CCN1CCN(Cc2cc(F)c(NC(=O)Nc3cnc(-c4c[nH]c(=O)c(OCCO)c4)nc3C)cc2C(F)(F)F)CC1 [Example 172, 1-(4-((4-Ethylpiperazin-1-yl)methyl)-2-fluoro-5-(trifluoromethyl)phenyl)-3-(2-(5-(2-hydroxyethoxy)-6-oxo-1,6-dihydropyridin-3-yl)-4-methylpyrimidin-5-yl)urea]"
7,< 100 nM,CCOc1cc(-c2cnc(NC(=O)Nc3ccc(OC4(C)COC4)c(C(F)(F)F)c3)c(C)n2)c[nH]c1=O [Example 108]
8,< 100 nM,CCOc1cc(-c2ccc(NC(=O)Nc3ccc(OC4CC(F)(F)C4)c(C(F)(F)F)c3)c(F)c2)c[nH]c1=O [Example 161]
9,< 100 nM,"CCOc1cc(-c2ncc(NC(=O)Nc3ccc(C(C)N)c(C(F)(F)F)c3)c(C)n2)c[nH]c1=O (centres unmarked) [Example 175, 1-(4-(1-Aminoethyl)-3-(trifluoromethyl)phenyl)-3-(2-(5-ethoxy-6-oxo-1,6-dihydropyridin-3-yl)-4-methylpyrimidin-5-yl)urea]"
10,< 100 nM,"CCOc1cc(-c2ncc(NC(=O)Nc3ccc(C4(CO)CC4)c(C(F)(F)F)c3)c(C)n2)c[nH]c1=O [Example 66, 1-(2-(5-Ethoxy-6-oxo-1,6-dihydropyridin-3-yl)-4-methylpyrimidin-5-yl)-3-(4-(1-(hydroxymethyl)cyclopropyl)-3-(trifluoromethyl)phenyl)urea hydrochloride]"
11,< 100 nM,"CCOc1cc(=O)[nH]cc1-c1ncc(NC(=O)Nc2ccc(CC3(C)COC3)c(C(F)(F)F)c2)c(C)n1 [Example 12, 1-(2-(4-Ethoxy-6-oxo-1,6-dihydropyridin-3-yl)-4-methylpyrimidin-5-yl)-3-(4-((3-methyloxetan-3-yl)methyl)-3-(trifluoromethyl)phenyl)urea]"
12,< 100 nM,"CCOc1cc(=O)[nH]cc1-c1ncc(NC(=O)Nc2ccc(C(C)(C)C#N)c(C(F)(F)F)c2)c(C)n1 [Example 26, 1-(4-(2-Cyanopropan-2-yl)-3-(trifluoromethyl)phenyl)-3-(2-(4-ethoxy-6-oxo-1,6-dihydropyridin-3-yl)-4-methylpyrimidin-5-yl)urea]"
13,< 100 nM,CCOc1cc(-c2ccc(NC(=O)Nc3ccc(C(N)=O)c(C(F)(F)F)c3)c(F)c2)c[nH]c1=O [Example 162]
14,< 100 nM,"CCOc1cc(-c2ncc(NC(=O)Nc3ccc(CCN4CCCC4)c(C(F)(F)F)c3)c(C)n2)c[nH]c1=O [Example 177, 1-(2-(5-Ethoxy-6-oxo-1,6-dihydropyridin-3-yl)-4-methylpyrimidin-5-yl)-3-(4-(2-(pyrrolidin-1-yl)ethyl)-3-(trifluoromethyl)phenyl)urea]"
15,< 100 nM,CCOc1cc(-c2ccc(NC(=O)Nc3ccc(OC4(C)COC4)c(C(F)(F)F)c3)c(Cl)n2)c[nH]c1=O [Example 87]
16,< 100 nM,"CCOc1cc(-c2ncc(NC(=O)Nc3cc(C(F)(F)F)c(CN4CCN(CCO)CC4)cc3F)c(C)n2)c[nH]c1=O [Example 171, 1-(2-(5-Ethoxy-6-oxo-1,6-dihydropyridin-3-yl)-4-methylpyrimidin-5-yl)-3-(2-fluoro-4-((4-(2-hydroxyethyl)piperazin-1-yl)methyl)-5-(trifluoromethyl)phenyl)urea]"
17,< 100 nM,"CCOc1cc(-c2cnc(NC(=O)Nc3ccc(OC4(C)COC4)c(C(F)(F)F)c3)cc2C)c[nH]c1=O [Example 62, 1-(5′-Ethoxy-4-methyl-6′-oxo-1′,6′-dihydro-[3,3′-bipyridin]-6-yl)-3-(4-((3-methyloxetan-3-yl)oxy)-3-(trifluoromethyl)phenyl)urea]"
